Test results published in PubChem BioAssay AID2060615 (Molecular Pharmacology Branch, DTP, NCI, 2025).
Several values for one entry are separate records, joined by “and”; a condition that tells them apart may be missing. Equal entries are not always repeated.

Tested on: 496974-208-R-J2-PDC complex spheroids, growth % test/control
Assay: Anticancer human tumor 496974-208-R-J2-PDC patient-derived pancreatic carcinoma cell line growth inhibition [CLK]
Conditions: for viability, T/C: stronger effect = lower value; active = viability on the fitted dose curve at most 10% of control; inactive = the rest
Procedure, shortened: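 Patient-derived tumor cells grown as complex spheroids with HUVEC endothelial cells and mesenchymal stem cells, treated with drug combinations. Concentrations descend in half-log steps from near clinical Cmax, or from 10 microM if Cmax unknown.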

[1] = curve of first compound, second compound 0.0316 µM
[2] = curve of first compound, second compound 0.1 µM
[3] = curve of first compound, second compound 0.316 µM
[4] = curve of first compound, second compound 1 µM
[5] = curve of first compound, second compound 3.16 µM
[6] = curve of first compound, second compound 10 µM
[7] = second compound 0.0316 µM, first compound 0.0316 µM
[8] = second compound 0.0316 µM, first compound 0.1 µM
[9] = second compound 0.0316 µM, first compound 0.316 µM
[10] = second compound 0.0316 µM, first compound 1 µM
[11] = second compound 0.0316 µM, first compound 3.16 µM
[12] = second compound 0.0316 µM, first compound 10 µM
[13] = second compound 0.1 µM, first compound 0.0316 µM
[14] = second compound 0.1 µM, first compound 0.1 µM
[15] = second compound 0.1 µM, first compound 0.316 µM
[16] = second compound 0.1 µM, first compound 1 µM
[17] = second compound 0.1 µM, first compound 3.16 µM
[18] = second compound 0.1 µM, first compound 10 µM
[19] = second compound 0.316 µM, first compound 0.0316 µM
[20] = second compound 0.316 µM, first compound 0.1 µM
[21] = second compound 0.316 µM, first compound 0.316 µM
[22] = second compound 0.316 µM, first compound 1 µM
[23] = second compound 0.316 µM, first compound 3.16 µM
[24] = second compound 0.316 µM, first compound 10 µM
[25] = second compound 1 µM, first compound 0.0316 µM
[26] = second compound 1 µM, first compound 0.1 µM
[27] = second compound 1 µM, first compound 0.316 µM
[28] = second compound 1 µM, first compound 1 µM
[29] = second compound 1 µM, first compound 3.16 µM
[30] = second compound 1 µM, first compound 10 µM
[31] = second compound 3.16 µM, first compound 0.0316 µM
[32] = second compound 3.16 µM, first compound 0.1 µM
[33] = second compound 3.16 µM, first compound 0.316 µM
[34] = second compound 3.16 µM, first compound 1 µM
[35] = second compound 3.16 µM, first compound 3.16 µM
[36] = second compound 3.16 µM, first compound 10 µM
[37] = second compound 10 µM, first compound 0.0316 µM
[38] = second compound 10 µM, first compound 0.1 µM
[39] = second compound 10 µM, first compound 0.316 µM
[40] = second compound 10 µM, first compound 1 µM
[41] = second compound 10 µM, first compound 3.16 µM
[42] = second compound 10 µM, first compound 10 µM
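Also: spheroids exposed to the drugs for 7 days before readout.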
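For viability, T/C in this document: 100% = DMSO vehicle control wells.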

COc1cccc2c1C(=O)c1c(O)c3c(c(O)c1C2=O)CC(O)(C(=O)CO)CC3OC1CC(N)C(O)C(C)O1 (centres undefined) + CN1CCN(c2cc(C(=O)Nc3cc4cc(-c5cnn(C)c5)ccc4cn3)ccn2)CC1
0.12 µM: IC50 [1]
inactive: viability, T/C [7] 68.7% | viability, T/C [8] 51.4% | viability, T/C [9] 30.8% | viability, T/C [13] 59.9% | viability, T/C [14] 46.6% | viability, T/C [15] 20.3%
active: viability, T/C [10] 3.22% | viability, T/C [11] 0.57% | viability, T/C [12] 0.47% | viability, T/C [16] 2.07% | viability, T/C [17] 0.59% | viability, T/C [18] 4.88% | viability, T/C [19] 7.3% | viability, T/C [20] 3.63% | viability, T/C [21] 1.93% | viability, T/C [22] 0.81% | viability, T/C [23] 0.45% | viability, T/C [24] 3.13% | viability, T/C [25] 0.57% | viability, T/C [26] 1.13% | viability, T/C [27] 0.75% | viability, T/C [28] 0.66% | viability, T/C [29] 0.36% | viability, T/C [30] 4.38% | viability, T/C [31] 0.52% | viability, T/C [32] 0.84% | viability, T/C [33] 0.57% | viability, T/C [34] 0.48% | viability, T/C [35] 1.77% | viability, T/C [36] 4.51% | viability, T/C [37] 0.22% | viability, T/C [38] 1.44% | viability, T/C [39] 0.2% | viability, T/C [40] 0.2% | viability, T/C [41] 0.21% | viability, T/C [42] 5.39%
0.0785 µM: IC50 [2]
< 0.0316 µM: IC50 [3] | IC50 [4] | IC50 [5] | IC50 [6]

COc1c(OCCCN2CCOCC2)ccc2c3n(c(=NC(=O)c4cnc(N)nc4)nc12)CCN3
inactive: viability, T/C (compound 0.00316 µM) 93.4% and 97.4% | viability, T/C (compound 0.01 µM) 64.2% and 60% | viability, T/C (compound 0.0316 µM) 32.8% and 28.6% | viability, T/C (compound 0.1 µM) 9.98% and 14.7%
0.0167 µM and 0.0144 µM: IC50 (curve of compound)
active: viability, T/C (compound 0.316 µM) 7.88% and 8.03% | viability, T/C (compound 1 µM) 3.01% and 3.54%

CC(CO)NC(=O)c1cc(-c2ccc(Cl)cc2)nn(-c2cnn(C)c2)c1=O (centres undefined) + CN1CCN(c2cc(C(=O)Nc3cc4cc(-c5cnn(C)c5)ccc4cn3)ccn2)CC1
< 0.0316 µM: IC50 [3] | IC50 [4] | IC50 [5] | IC50 [6]
> 10 µM: IC50 [1] | IC50 [2]
active: viability, T/C [19] 6.47% | viability, T/C [20] 7.73% | viability, T/C [21] 7.09% | viability, T/C [22] 6.92% | viability, T/C [23] 7.31% | viability, T/C [24] 10.6% | viability, T/C [25] 0.48% | viability, T/C [26] 0.63% | viability, T/C [27] 0.82% | viability, T/C [28] 0.41% | viability, T/C [29] 0.57% | viability, T/C [30] 3.08% | viability, T/C [31] 0.49% | viability, T/C [32] 0.49% | viability, T/C [33] 0.55% | viability, T/C [34] 0.4% | viability, T/C [35] 1% | viability, T/C [36] 0.92% | viability, T/C [37] 0.3% | viability, T/C [38] 0.27% | viability, T/C [39] 1.54% | viability, T/C [40] 0.29% | viability, T/C [41] 0.35% | viability, T/C [42] 1.18%
inactive: viability, T/C [7] 100% | viability, T/C [8] 103% | viability, T/C [9] 104% | viability, T/C [10] 97.6% | viability, T/C [11] 79.8% | viability, T/C [12] 53.3% | viability, T/C [13] 80.9% | viability, T/C [14] 90.1% | viability, T/C [15] 73.7% | viability, T/C [16] 80% | viability, T/C [17] 71.3% | viability, T/C [18] 55%

Nc1ccccc1NC(=O)c1ccc(CNC(=O)OCc2cccnc2)cc1
4.37 µM and 4.16 µM: IC50 (curve of compound)
active: viability, T/C (compound 10 µM) 0.53% and 0.83%
inactive: viability, T/C (compound 0.0316 µM) 104% and 112% | viability, T/C (compound 0.1 µM) 86.3% and 98.7% | viability, T/C (compound 0.316 µM) 85.9% and 86.6% | viability, T/C (compound 1 µM) 77.5% and 72.4% | viability, T/C (compound 3.16 µM) 74.1% and 77.9%

CCCS(=O)(=O)Nc1ccc(F)c(C(=O)c2c[nH]c3ncc(-c4ccc(Cl)cc4)cc23)c1F + CNC(=O)c1ccc(Nc2nc(OC3CCCC3)c3c(-c4ccc5nc(C)oc5c4)c[nH]c3n2)c(OC)c1
2.59 µM: IC50 [4]
0.0681 µM: IC50 [5]
inactive: viability, T/C [7] 94.7% | viability, T/C [8] 73.7% | viability, T/C [9] 115% | viability, T/C [10] 100% | viability, T/C [11] 91% | viability, T/C [12] 23.6% | viability, T/C [13] 71.5% | viability, T/C [14] 47.6% | viability, T/C [15] 78.6% | viability, T/C [16] 86% | viability, T/C [17] 78.2% | viability, T/C [18] 35.6% | viability, T/C [19] 70.7% | viability, T/C [20] 45.4% | viability, T/C [21] 76.3% | viability, T/C [22] 71.2% | viability, T/C [23] 78.2% | viability, T/C [24] 29.6% | viability, T/C [25] 51.2% | viability, T/C [26] 44.1% | viability, T/C [27] 64.5% | viability, T/C [28] 69.5% | viability, T/C [29] 66.2% | viability, T/C [30] 22.4% | viability, T/C [31] 52% | viability, T/C [32] 26% | viability, T/C [33] 61.9% | viability, T/C [34] 63.3% | viability, T/C [35] 53.1% | viability, T/C [36] 19.8% | viability, T/C [37] 50.7% | viability, T/C [38] 30.5% | viability, T/C [39] 58.6% | viability, T/C [40] 61.7% | viability, T/C [41] 64% | viability, T/C [42] 27.2%
6.39 µM: IC50 [1]
< 0.0316 µM: IC50 [6]
> 10 µM: IC50 [3]
6.36 µM: IC50 [2]

CC(Nc1ccc2c(c1)OCCn1cc(N3C(=O)OCC3C(F)F)nc1-2)C(N)=O (centres undefined) + CN1CCN(c2cc(C(=O)Nc3cc4cc(-c5cnn(C)c5)ccc4cn3)ccn2)CC1
active: viability, T/C [12] 8.34% | viability, T/C [18] 8.7% | viability, T/C [19] 7.37% | viability, T/C [20] 5.41% | viability, T/C [21] 2.52% | viability, T/C [22] 2.18% | viability, T/C [23] 2.7% | viability, T/C [24] 2.59% | viability, T/C [25] 0.4% | viability, T/C [26] 0.53% | viability, T/C [27] 2.57% | viability, T/C [28] 0.36% | viability, T/C [29] 1.09% | viability, T/C [30] 1.26% | viability, T/C [31] 0.43% | viability, T/C [32] 0.34% | viability, T/C [33] 1.75% | viability, T/C [34] 0.38% | viability, T/C [35] 0.52% | viability, T/C [36] 0.5% | viability, T/C [37] 0.2% | viability, T/C [38] 0.58% | viability, T/C [39] 1.4% | viability, T/C [40] 0.27% | viability, T/C [41] 0.59% | viability, T/C [42] 0.57%
inactive: viability, T/C [7] 86.4% | viability, T/C [8] 60.1% | viability, T/C [9] 37.2% | viability, T/C [10] 22% | viability, T/C [11] 13.6% | viability, T/C [13] 64% | viability, T/C [14] 51.2% | viability, T/C [15] 32.3% | viability, T/C [16] 20.9% | viability, T/C [17] 14.5%
0.101 µM: IC50 [2]
< 0.0316 µM: IC50 [3] | IC50 [4] | IC50 [5] | IC50 [6]
0.166 µM: IC50 [1]

COc1cccc2c1C(=O)c1c(O)c3c(c(O)c1C2=O)CC(O)(C(=O)CO)CC3OC1CC(N)C(O)C(C)O1 (centres undefined) + CNC(=O)c1ccc(Nc2nc(OC3CCCC3)c3c(-c4ccc5nc(C)oc5c4)c[nH]c3n2)c(OC)c1
0.191 µM: IC50 [3]
0.185 µM: IC50 [1]
0.177 µM: IC50 [2]
active: viability, T/C [10] 3.78% | viability, T/C [11] 0.62% | viability, T/C [12] 0.49% | viability, T/C [16] 3.28% | viability, T/C [17] 0.77% | viability, T/C [18] 2.66% | viability, T/C [22] 3.12% | viability, T/C [23] 0.68% | viability, T/C [24] 0.3% | viability, T/C [28] 1.15% | viability, T/C [29] 2.86% | viability, T/C [30] 3.97% | viability, T/C [34] 1.62% | viability, T/C [35] 0.55% | viability, T/C [36] 0.42% | viability, T/C [40] 1.34% | viability, T/C [41] 0.84% | viability, T/C [42] 0.85%
0.103 µM: IC50 [5]
inactive: viability, T/C [7] 70.4% | viability, T/C [8] 62.2% | viability, T/C [9] 38.3% | viability, T/C [13] 67.5% | viability, T/C [14] 66.1% | viability, T/C [15] 33.8% | viability, T/C [19] 68% | viability, T/C [20] 68.3% | viability, T/C [21] 36.2% | viability, T/C [25] 68% | viability, T/C [26] 52.9% | viability, T/C [27] 22.5% | viability, T/C [31] 57.9% | viability, T/C [32] 50.7% | viability, T/C [33] 18.4% | viability, T/C [37] 57.8% | viability, T/C [38] 40.5% | viability, T/C [39] 16.8%
0.115 µM: IC50 [4]
0.0536 µM: IC50 [6]
